What all share (assay): DTP human tumour cell line panel, 48 h
For test [1], the system named is OVCAR-5 ovarian.
Test [2] has as its system MDA-MB-435.
For test [3], the system named is SF-295 CNS.
Test [4] concerns CCRF-CEM leukemia.
Test [5] concerns HCT-116 colon.
The test system of test [6] is HL-60(TB) leukemia.
In test [7] the test system is NCI/ADR-RES ovarian.
Test [8] deals with MOLT-4 leukemia.
Test [9] concerns HS 578T breast.
Test [10] relates to T-47D breast.

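Test compounds were applied to cells in 96-well plates for 48 hours at 5 doses. GI50 = concentration required for 50% inhibition of growth. TGI marks complete inhibition of growth.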

Regarding `CC(C)(Br)C(=O)N1CCN(C(c2ccccc2)c2ccccc2)CC1`, the TGI in test [1] was over 100 µM; in test [2], over 100 µM; in test [3], over 100 µM; in test [4] it was over 100 µM; in test [5], over 100 µM; in [6] it was 41.9 µM. Moreover, the figures for the TGI in test [7], in test [8] and in test [9] were over 100 µM, over 100 µM and 55.5 µM, respectively.

`Fc1cc2[nH]ncc2c2c3c(c(-c4cn[nH]c4C(F)(F)F)nc12)CCCC3`: the GI50 is 2.49 µM in test [1]; 2.39 µM in test [2]; 1.97 µM in test [10]; 2.15 µM in test [3]; 1.89 µM in [4]; 0.923 µM in [5]. Also, the figures for the GI50 in test [7], in test [8] and in test [9] were 4.95 µM, 0.802 µM and 1.66 µM, respectively. Besides, the TGI was 7.43 µM in [1]; 12.1 µM in [2]; 7.39 µM in test [10]; 10.3 µM in test [3]; over 100 µM in test [4]; over 100 µM in test [5]. For the same compound, the TGI in [7] was 43.4 µM; in test [8] it was 3.75 µM; in test [9] it was 5.26 µM.

Take `O=C1CSCc2sccc21`: the TGI in [1], in [10], in test [3], in test [4], in test [5] and in [6] was over 100 µM in each case. Also, the TGI in test [7], in test [8] and in [9] was over 100 µM throughout.

Take `COc1ccc2c(c1OC)C[C@@H]1c3c(cc4c(c3-2)OCO4)CCN1C`: the TGI in test [1] is over 100 µM; in test [2], over 100 µM; in test [10], 90.2 µM; in test [3], 31.3 µM; in test [4], 51.6 µM; in [5], 47.3 µM. Moreover, the TGI is 27.2 µM in test [6], 47.4 µM in test [8] and over 100 µM in [9].

As to `CC(=O)O[C@H]1C(=O)[C@@]2(C)C(C(OC(=O)c3ccccc3)[C@]3(O)C[C@H](OC(=O)C(OC(=O)CCCC(=O)NCCCN(C)C)C(NC(=O)c4ccccc4)c4ccccc4)C(C)=C1C3(C)C)C1(OC(C)=O)COC1C[C@@H]2O` (stereo not given in full), the TGI was 13.1 µM in test [1]; 47.8 µM in [10]; 1.28 µM in test [3]; 9.58 µM in [4]; 1.53 µM in test [5]; 0.0832 µM in [6]. Further, the concentration for total growth inhibition (TGI) in test [7] amounted to 70.7 µM; in [8], 12.5 µM; in test [9] it was 0.0151 µM.

In the case of `c1ccc2sc(SCCSc3nc4ccccc4s3)nc2c1`, the TGI in [1], in [2], in [10], in [3], in test [5] and in [6] was over 100 µM in each case. Besides, the TGI in test [7] and in [9] was over 100 µM throughout.

Consider `CC(C)C1=CC(=O)C(C)(C2C(O)CC3(C)C4CC=C5C(CCC(OC6OC(CO)C(O)C(O)C6OC6OC(C)C(O)C(O)C6O)C5(C)C)C4(C)C(=O)CC23C)O1` (stereo not given), for which the TGI in [1], in [2], in test [10], in test [3], in test [4] and in test [5] was over 100 µM in each case. Further, the TGI in test [7], in test [8] and in test [9] was over 100 µM each time.

As for `CCOC(=O)/C(=C/N1CCN(C(=O)c2ccco2)C1=S)C(=O)c1ccccc1`, the GI50 is 14.4 µM in [2]; 4.08 µM in test [10]; 16.4 µM in test [3]; 15.6 µM in test [4]; 8.93 µM in [5]; 14.9 µM in test [6]. In addition, the GI50 in test [8] is 19.6 µM. Also, the TGI in test [2] was over 50 µM; in test [10], over 50 µM; in test [3] it was over 50 µM; in [4], over 50 µM; in test [5], 23.7 µM; in test [6] it was 31 µM. Moreover, the TGI in test [8] is over 50 µM.

In the case of `O=C(Nc1ccc2[nH]nc(-c3ccncc3)c2c1)[C@@H]1CCN(CC(=O)N2CCN(c3ccc(-c4ncccn4)cc3)CC2)C1`, the GI50 in test [10] is 2.74 µM; in test [3], over 100 µM; in test [4], 5.49 µM; in test [5] it was 0.0783 µM; in test [6] it was 0.132 µM; in test [7], over 100 µM. The GI50 in test [8] is 5.22 µM; in test [9], over 100 µM. The TGI in test [10] is over 100 µM; in test [3], over 100 µM; in test [4], over 100 µM; in test [5], over 44.6 µM; in test [6], over 100 µM; in [7], over 100 µM. In addition, the figures for the TGI in test [8] and in test [9] were over 80.6 µM and over 100 µM, respectively.

For the compound `O=C(CC(Cl)=C(Cl)Cl)Nc1ccccc1`, the GI50 in [1], in test [10], in test [4], in [5], in test [6] and in test [7] was over 100 µM each time. The GI50 in test [8] and in test [9] was over 100 µM in each case. The TGI in [1], in test [10], in test [4], in test [5], in test [6] and in [7] was over 100 µM in each case. The TGI in test [8] and in test [9] was over 100 µM throughout.

Turning to `CCN(CCCN(C)C)Cc1cc(I)cc(C)c1O`, the GI50 is 26.8 µM in [1]; 15.7 µM in test [2]; 21.3 µM in test [10]; 15.9 µM in test [3]; 14.6 µM in [5]; 20 µM in [6]. Besides, the results for the GI50 in test [7], in [8] and in test [9] were 27 µM, 17.9 µM and 15.3 µM, respectively. For the same compound, the concentration for total growth inhibition (TGI) was determined as 96.1 µM in test [1]; 31.6 µM in [2]; 48.5 µM in [10]; 31.9 µM in [3]; 32 µM in test [5]; 41.5 µM in [6]. The TGI is over 100 µM in test [7], 36.5 µM in test [8] and 33.1 µM in test [9].

For the origin of these results see PubChem BioAssay (NCI).
